Test results from ChEMBL document CHEMBL1145390, “Synthesis and preliminary biological characterization of new semisynthetic derivatives of ramoplanin” (J Med Chem, 2007).
In brackets after ≈: the same amount, converted by molar mass.

What was measured:
[1] = tested on: Enterococcus faecium; test: Antibacterial activity against Enterococcus faecium after 24 hrs by broth microdilution method; assay type: functional; details: read-out: MIC
[2] = Toxicity assessed as hemolysis in erythrocytes at 90 mg/L; assay type: cell-based, Erythrocyte; details: human, erythrocytes; read-out: Activity
[3] = tested on: Streptococcus pyogenes; test: Antibacterial activity against Streptococcus pyogenes C203 after 24 hrs by broth microdilution method; assay type: functional; details: C203, 24 h, read-out: MIC
[4] = tested on: Escherichia coli; test: Antibacterial activity against Escherichia coli SKF-12140 after 24 hrs by broth microdilution method; assay type: functional; details: read-out: MIC
[5] = tested on: Staphylococcus aureus; test: Antibacterial activity against Staphylococcus aureus Smith after 24 hrs by broth microdilution method; assay type: functional; details: read-out: MIC
[6] = tested on: Staphylococcus aureus; test: Antibacterial activity against methicillin-resistant and vancomycin-intermediate resistant Staphylococcus aureus clinical isolate after 24 hrs by broth microdilution method; assay type: functional; details: read-out: MIC
[7] = tested on: Candida albicans; test: Antifungal activity against Candida albicans SKF-2270 after 24 hrs by broth microdilution method; assay type: functional; details: read-out: MIC
[8] = Toxicity assessed as hemolysis in erythrocytes at 180 mg/L; assay type: cell-based, Erythrocyte; details: human, erythrocytes; read-out: Activity
[9] = tested on: Enterococcus faecium; test: Antibacterial activity against vancomycin A-resistant Enterococcus faecium clinical isolate after 24 hrs by broth microdilution method; assay type: functional; details: read-out: MIC
[10] = tested on: Staphylococcus aureus; test: Antibacterial activity against vancomycin-intermediate resistant Staphylococcus aureus clinical isolate after 24 hrs by broth microdilution method; assay type: functional
[11] = tested on: Staphylococcus aureus; test: Antibacterial activity against methicillin-resistant Staphylococcus aureus clinical isolate after 24 hrs by broth microdilution method; assay type: functional; details: read-out: MIC
[12] = tested on: Enterococcus faecalis; test: Antibacterial activity against Enterococcus faecalis after 24 hrs by broth microdilution method; assay type: functional; details: read-out: MIC
[13] = tested on: Enterococcus faecalis; test: Antibacterial activity against vancomycin A-resistant Enterococcus faecalis after 24 hrs by broth microdilution method; assay type: functional; details: read-out: MIC

SMILES | MIC [1] [µg/mL] | hemolysis at 90 mg/L [2] [%] | MIC [3] [µg/mL] | MIC [4] [µg/mL] | MIC [5] [µg/mL] | MIC [6] [µg/mL] | MIC [7] [µg/mL] | hemolysis at 180 mg/L [8] [%] | MIC [9] [µg/mL] | MIC [10] [µg/mL] | MIC [11] [µg/mL] | MIC [12] [µg/mL] | MIC [13] [µg/mL]
CC(C)C[C@@H]1NC(=O)CNC(=O)[C@H](c2ccc(O)cc2)NC(=O)[C@@H]([C@@H](C)O)NC(=O)[C@H](c2ccc(O[C@H]3O[C@H](CO)[C@@H](O)[C@H](O)[C@@H]3O[C@H]3O[C@H](CO)[C@@H](O)[C@H](O)[C@@H]3O)cc2)NC(=O)[C@@H](CCCN)NC(=O)[C@H](Cc2ccccc2)NC(=O)[C@H]([C@@H](C)O)NC(=O)[C@@H](c2ccc(O)cc2)NC(=O)[C@H](c2ccc(O)cc2)NC(=O)[C@@H](C(C)C)NC(=O)[C@@H](CCCN)NC(=O)[C@@H](c2ccc(O)cc2)NC(=O)[C@@H](CNC(=O)[C@H](CC(N)=O)NC(=O)c2ccc(C#N)cc2)[C@@H](C(N)=O)OC(=O)[C@H](c2ccc(O)c(Cl)c2)NC(=O)[C@@H](C)NC1=O | 8 (≈ 3.13 µM) | 2 | 0.06 (≈ 0.0234 µM) | > 32 | 8 (≈ 3.13 µM) | 32 (≈ 12.5 µM) | > 32 | 3 | 4 (≈ 1.56 µM) | 32 (≈ 12.5 µM) | 4 (≈ 1.56 µM) | 4 (≈ 1.56 µM) | 8 (≈ 3.13 µM)
CCCCOc1ccc(C(=O)N[C@@H](CC(N)=O)C(=O)NC[C@@H]2C(=O)N[C@H](c3ccc(O)cc3)C(=O)N[C@H](CCCN)C(=O)N[C@H](C(C)C)C(=O)N[C@@H](c3ccc(O)cc3)C(=O)N[C@H](c3ccc(O)cc3)C(=O)N[C@@H]([C@@H](C)O)C(=O)N[C@@H](Cc3ccccc3)C(=O)N[C@H](CCCN)C(=O)N[C@@H](c3ccc(O[C@H]4O[C@H](CO)[C@@H](O)[C@H](O)[C@@H]4O[C@H]4O[C@H](CO)[C@@H](O)[C@H](O)[C@@H]4O)cc3)C(=O)N[C@H]([C@@H](C)O)C(=O)N[C@@H](c3ccc(O)cc3)C(=O)NCC(=O)N[C@@H](CC(C)C)C(=O)N[C@H](C)C(=O)N[C@@H](c3ccc(O)c(Cl)c3)C(=O)O[C@@H]2C(N)=O)cc1OCCCC | 1 (≈ 0.373 µM) | 0 | 1 (≈ 0.373 µM) | > 32 | 2 (≈ 0.747 µM) | 16 (≈ 5.97 µM) | > 32 | 47 | 1 (≈ 0.373 µM) | 16 (≈ 5.97 µM) | 8 (≈ 2.99 µM) | 1 (≈ 0.373 µM) | 1 (≈ 0.373 µM)
CCc1ccc(C(=O)N[C@@H](CC(N)=O)C(=O)NC[C@@H]2C(=O)N[C@H](c3ccc(O)cc3)C(=O)N[C@H](CCCN)C(=O)N[C@H](C(C)C)C(=O)N[C@@H](c3ccc(O)cc3)C(=O)N[C@H](c3ccc(O)cc3)C(=O)N[C@@H]([C@@H](C)O)C(=O)N[C@@H](Cc3ccccc3)C(=O)N[C@H](CCCN)C(=O)N[C@@H](c3ccc(O[C@H]4O[C@H](CO)[C@@H](O)[C@H](O)[C@@H]4O[C@H]4O[C@H](CO)[C@@H](O)[C@H](O)[C@@H]4O)cc3)C(=O)N[C@H]([C@@H](C)O)C(=O)N[C@@H](c3ccc(O)cc3)C(=O)NCC(=O)N[C@@H](CC(C)C)C(=O)N[C@H](C)C(=O)N[C@@H](c3ccc(O)c(Cl)c3)C(=O)O[C@@H]2C(N)=O)cc1 | 1 (≈ 0.39 µM) | 36 | < 0.03 | > 32 | 0.5 (≈ 0.195 µM) | 4 (≈ 1.56 µM) | > 32 | 62 | 1 (≈ 0.39 µM) | > 32 | 1 (≈ 0.39 µM) | 1 (≈ 0.39 µM) | 1 (≈ 0.39 µM)
CCCCCCC(=O)N[C@@H](CC(N)=O)C(=O)NC[C@@H]1C(=O)N[C@H](c2ccc(O)cc2)C(=O)N[C@H](CCCN)C(=O)N[C@H](C(C)C)C(=O)N[C@@H](c2ccc(O)cc2)C(=O)N[C@H](c2ccc(O)cc2)C(=O)N[C@@H]([C@@H](C)O)C(=O)N[C@@H](Cc2ccccc2)C(=O)N[C@H](CCCN)C(=O)N[C@@H](c2ccc(O[C@H]3O[C@H](CO)[C@@H](O)[C@H](O)[C@@H]3O[C@H]3O[C@H](CO)[C@@H](O)[C@H](O)[C@@H]3O)cc2)C(=O)N[C@H]([C@@H](C)O)C(=O)N[C@@H](c2ccc(O)cc2)C(=O)NCC(=O)N[C@@H](CC(C)C)C(=O)N[C@H](C)C(=O)N[C@@H](c2ccc(O)c(Cl)c2)C(=O)O[C@@H]1C(N)=O | 1 (≈ 0.393 µM) | 2 | < 0.03 | > 32 | 1 (≈ 0.393 µM) | 8 (≈ 3.15 µM) | > 32 | 1 | 1 (≈ 0.393 µM) | 4 (≈ 1.57 µM) | 1 (≈ 0.393 µM) | 0.5 (≈ 0.197 µM) | 0.5 (≈ 0.197 µM)
CC(C)C[C@@H]1NC(=O)CNC(=O)[C@H](c2ccc(O)cc2)NC(=O)[C@@H]([C@@H](C)O)NC(=O)[C@H](c2ccc(O[C@H]3O[C@H](CO)[C@@H](O)[C@H](O)[C@@H]3O[C@H]3O[C@H](CO)[C@@H](O)[C@H](O)[C@@H]3O)cc2)NC(=O)[C@@H](CCCN)NC(=O)[C@H](Cc2ccccc2)NC(=O)[C@H]([C@@H](C)O)NC(=O)[C@@H](c2ccc(O)cc2)NC(=O)[C@H](c2ccc(O)cc2)NC(=O)[C@@H](C(C)C)NC(=O)[C@@H](CCCN)NC(=O)[C@@H](c2ccc(O)cc2)NC(=O)[C@@H](CNC(=O)[C@H](CC(N)=O)NC(=O)CCCc2ccccc2)[C@@H](C(N)=O)OC(=O)[C@H](c2ccc(O)c(Cl)c2)NC(=O)[C@@H](C)NC1=O | 2 (≈ 0.776 µM) | 0 | ≤ 0.03 | > 32 | 1 (≈ 0.388 µM) | 8 (≈ 3.11 µM) | > 32 | 0 | 2 (≈ 0.776 µM) | 8 (≈ 3.11 µM) | 2 (≈ 0.776 µM) | 1 (≈ 0.388 µM) | 1 (≈ 0.388 µM)
CCCCCOc1ccc(C(=O)N[C@@H](CC(N)=O)C(=O)NC[C@@H]2C(=O)N[C@H](c3ccc(O)cc3)C(=O)N[C@H](CCCN)C(=O)N[C@H](C(C)C)C(=O)N[C@@H](c3ccc(O)cc3)C(=O)N[C@H](c3ccc(O)cc3)C(=O)N[C@@H]([C@@H](C)O)C(=O)N[C@@H](Cc3ccccc3)C(=O)N[C@H](CCCN)C(=O)N[C@@H](c3ccc(O[C@H]4O[C@H](CO)[C@@H](O)[C@H](O)[C@@H]4O[C@H]4O[C@H](CO)[C@@H](O)[C@H](O)[C@@H]4O)cc3)C(=O)N[C@H]([C@@H](C)O)C(=O)N[C@@H](c3ccc(O)cc3)C(=O)NCC(=O)N[C@@H](CC(C)C)C(=O)N[C@H](C)C(=O)N[C@@H](c3ccc(O)c(Cl)c3)C(=O)O[C@@H]2C(N)=O)cc1 | 0.25 (≈ 0.0954 µM) | 8 | 0.25 (≈ 0.0954 µM) | > 32 | 8 (≈ 3.05 µM) | 8 (≈ 3.05 µM) | > 32 | 10 | 0.25 (≈ 0.0954 µM) | 4 (≈ 1.53 µM) | 2 (≈ 0.763 µM) | 0.25 (≈ 0.0954 µM) | 0.25 (≈ 0.0954 µM)
